Assay results from patent US20110251379A1, “COMPOUNDS USEFUL FOR TREATING NEURODEGENERATIVE DISORDERS” (Satori Pharmaceuticals, Inc., priority 2010, published 2011).

Tested on: amyloid-beta (1-42) peptide
Assay: ELISA assay of amyloid-beta (1-42) in conditioned media of 2B7 cells
Format: cell-based
Settings: for IC50: 5 h, Aβ-42, 2B7 cells, 5 hours, read-out: IC50 range
Experimental: Compounds of the present invention, and extracts comprising said compounds, may be assayed as inhibitors of amyloid-beta (1-42) peptide in vitro or in vivo. Such assay methods are described in detail in U.S. Pat. No. 6,649,196, the entirety of which is hereby incorporated herein by reference.
In certain embodiments, provided compounds of the present invention, and extracts comprising said compounds, were assayed as inhibitors of amyloid-beta (1-42) peptide in vitro using an ELISA assay.
Capture Plate Prep: • 6E10 was diluted to 5.0 ug/mL in 100 mM NaHCO3 pH 8.2 (10 ug aliquot per 2 mL buffer); • 100 uL capture antibody solution was added to wells of 96 well plate; • Incubated overnight at 4° C. sealed; • Aspirated off capture antibody; and • Blocked with 250 uL of Blocking Buffer for 2-4 hours at rt sealed.
Conditioned Media: • Cultured 2B7 cells in 96 well plate with 250 uL of media per well until confluent; • Prepared serial dilution of compounds in DMSO at 100× the final desired concentration; • Washed wells with 2B7 cells lx with 250 uL of media; • Diluted DMSO stocks 1:100 into media and mix; and • Added 250 μL of media containing compounds (1% DMSO) to wells with 2B7 cells for 5 hours at 37° C.
Elisa Sample Prep: • Diluted conditioned media 1:2 into blocking buffer; • NOTE: If assaying for A-Beta 1-40 or total A-Beta, then diluted above sample 1:10 with a 50/50 mixture of non-conditioned media containing 1% DMSO and blocking buffer.
Standard Curve Sample Prep: • Diluted appropriate A-Beta peptide stock (stored in 1% NH4OH) to 200 μg/mL in blocking buffer; • Prepared a 1:2 serial dilution from the 200 μg/mL sample (150 μL into 150 μL blocking buffer); and • Added equal volume of standard curve samples to non-conditioned media with 1% DMSO.
Overnight Sample Incubation: • Aspirated blocking buffer from blocked plate; • Added 100 μL of samples to wells of plate (samples will be 50% media with 1% DMSO and 50% blocking buffer; and • Incubated overnight at 4° C. sealed.
Addition of Detection Antibody: • Aspirated off samples, wash 2× with 250 μL blocking buffer; and • Added 100 μL detection antibody labeled with HRP at 0.25 ug/mL in blocking buffer for 4 hours at room temperature sealed.
Final Wash and Readout: • Aspirated wells, wash 5× with 250 μL of PBS-T (2 minutes each wash at 30 RPM); • Added 100 μL TMB for 20 minutes; • Added 100 μL of 1M H3PO4; and • Read at 450 nm.
Coating Buffer (100 mM NaHCO3 pH 8.2)
PBS-T (PBS with 0.05% Tween-20)
Blocking Buffer (1% BSA in PBS-T)

SMILES | IC50 | inhibition at 10 µM (Aβ-42, 10 umol/L, read-out: % Inhibition (range)) | inhibition at 100 µM (Aβ-42, 100 umol/L, read-out: % Inhibition (range))
CC(=O)O[C@@H]([C@H]1C[C@@H](C)C2=C(O1)[C@H](O)[C@@]1(C)[C@@H]3CC[C@H]4C(C)(C)[C@@H](O[C@@H]5OC[C@@H](O)[C@H](O)[C@H]5O)CC[C@@]45C[C@@]35CC[C@]21C)C(C)(C)O | ≤ 1000 nM | – | –
C[C@@H]1C[C@H]([C@H](O)C(C)(C)O)OC2=C1[C@@]1(C)CC[C@@]34C[C@@]35CC[C@H](O[C@@H]3OC[C@@H](O)[C@H](O)[C@H]3O)C(C)(C)[C@@H]5CC[C@H]4[C@]1(C)[C@H]2O | 1000 to 10000 nM | – | –
CC(=O)O[C@@H]([C@H]1C[C@@H](C)C2=C(O1)[C@H](O)[C@@]1(C)[C@@H]3CC[C@H]4C(C)(C)[C@@H](O)CC[C@@]45C[C@@]35CC[C@]21C)C(C)(C)O | < 10000 nM | > 75% | –
CC(=O)O[C@@H]([C@H]1C[C@@H](C)C2C(O1)C(=O)[C@@]1(C)[C@@H]3CC[C@H]4C(C)(C)[C@@H](O)CC[C@@]45C[C@@]35CC[C@]21C)C(C)(C)O (some centres unmarked) | 1000 to 10000 nM | – | –
C[C@@H]1C[C@H]([C@H](O)C(C)(C)O)OC2C(=O)[C@@]3(C)[C@@H]4CC[C@H]5C(C)(C)[C@@H](O[C@@H]6OC[C@@H](O)[C@H](O)[C@H]6O)CC[C@@]56C[C@@]46CC[C@]3(C)C21 (some centres unmarked) | > 10000 nM | – | –
C[C@@H]1C[C@H]([C@@H]2OCOC2(C)C)OC2C1[C@@]1(C)CC[C@@]34C[C@@]35CC[C@H](O[C@@H]3OC[C@@H](O)[C@H](O)[C@H]3O)C(C)(C)[C@@H]5CC[C@H]4[C@]1(C)[C@H]2O (some centres unmarked) | 1000 to 10000 nM | – | –
C[C@@H]1C[C@H]([C@@H]2OC(=O)OC2(C)C)OC2=C1[C@@]1(C)CC[C@@]34C[C@@]35CC[C@H](O[C@@H]3OC[C@@H](O)[C@H](O)[C@H]3O)C(C)(C)[C@@H]5CC[C@H]4[C@]1(C)[C@H]2O | 1000 to 10000 nM | – | –
C[C@@H]1C[C@H]([C@@H]2OC(=O)OC2(C)C)OC2C(O)[C@@]3(C)[C@@H]4CC[C@H]5C(C)(C)[C@@H](O[C@@H]6OC[C@@H](O)[C@H](O)[C@H]6O)CC[C@@]56C[C@@]46CC[C@]3(C)C21 (some centres unmarked) | 1000 to 10000 nM | – | –
CC(=O)OC(C)(C)[C@@H](O)[C@H]1C[C@@H](C)C2=C(O1)[C@H](O)[C@@]1(C)[C@@H]3CC[C@H]4C(C)(C)[C@@H](OC5OC[C@@H](O)[C@H](O)[C@H]5O)CC[C@@]45C[C@@]35CC[C@]21C (some centres unmarked) | 1000 to 10000 nM | – | –
CCC(=O)OC(C)(C)[C@H]1OC23O[C@@H]1C[C@@H](C)[C@@H]2[C@@]1(C)CC[C@@]24C[C@@]25CC[C@H](O[C@@H]2OC[C@@H](O)[C@H](O)[C@H]2O)C(C)(C)[C@@H]5CC[C@H]4[C@]1(C)[C@H]3O | 1000 to 10000 nM | – | –
CO[C@@H]([C@H]1C[C@@H](C)C2C(O1)[C@H](O)[C@@]1(C)[C@@H]3CC[C@H]4C(C)(C)[C@@H](O[C@@H]5OC[C@@H](O)[C@H](O)[C@H]5O)CC[C@@]45C[C@@]35CC[C@]21C)C(C)(C)O (some centres unmarked) | 1000 to 10000 nM | – | –
CCC(=O)O[C@@H]([C@H]1C[C@@H](C)C2C(O1)C(O)[C@@]1(C)[C@@H]3CC[C@H]4C(C)(C)[C@@H](O[C@@H]5OC[C@@H](O)[C@H](O)[C@H]5O)CC[C@@]45C[C@@]35CC[C@]21C)C(C)(C)O (some centres unmarked) | ≤ 1000 nM | – | 25 to 75%
CC(=O)O[C@@H]([C@H]1C[C@@H](C)C2C(O1)C(N)[C@@]1(C)[C@@H]3CC[C@H]4C(C)(C)[C@@H](O[C@@H]5OC[C@@H](O)[C@H](O)[C@H]5O)CC[C@@]45C[C@@]35CC[C@]21C)C(C)(C)O (some centres unmarked) | 1000 to 10000 nM | – | –
CC(=O)OC(C)(C)[C@@H](O)[C@H]1C[C@@H](C)C2C(O1)[C@H](O)[C@@]1(C)[C@@H]3CC[C@H]4C(C)(C)[C@@H](O[C@@H]5OC[C@@H](O)[C@H](O)[C@H]5O)CC[C@@]45C[C@@]35CC[C@]21C (some centres unmarked) | 1000 to 10000 nM | – | –
COCO[C@@H]([C@H]1C[C@@H](C)C2=C(O1)[C@H](O)[C@@]1(C)[C@@H]3CC[C@H]4C(C)(C)[C@@H](O[C@@H]5OC[C@@H](O)[C@H](O)[C@H]5O)CC[C@@]45C[C@@]35CC[C@]21C)C(C)(C)O | 1000 to 10000 nM | – | –
C[C@@H]1C[C@H]([C@H](O)C(C)(C)OC(=O)O)OC2C1[C@@]1(C)CC[C@@]34C[C@@]35CC[C@H](O[C@@H]3OC[C@@H](O)[C@H](O)[C@H]3O)C(C)(C)[C@@H]5CC[C@H]4[C@]1(C)[C@H]2O (some centres unmarked) | 1000 to 10000 nM | – | –
C[C@@H]1C[C@H](C(=O)C(C)(C)O)OC2C1[C@@]1(C)CC[C@@]34C[C@@]35CC[C@H](O[C@@H]3OC[C@@H](O)[C@H](O)[C@H]3O)C(C)(C)[C@@H]5CC[C@H]4[C@]1(C)[C@H]2O (some centres unmarked) | > 10000 nM | – | –

SMILES | IC50 | inhibition at 10 µM (Aβ-42, 10 umol/L, read-out: % Inhibition (range)) | inhibition at 100 µM (Aβ-42, 100 umol/L, read-out: % Inhibition (range))
C[C@@H]1C[C@H]([C@H](OC(N)=O)C(C)(C)O)OC2C1[C@@]1(C)CC[C@@]34C[C@@]35CC[C@H](O[C@@H]3OC[C@@H](O)[C@H](O)[C@H]3O)C(C)(C)[C@@H]5CC[C@H]4[C@]1(C)[C@H]2O (some centres unmarked) | 1000 to 10000 nM | – | –
COCO[C@H]1[C@H](O)COC(O[C@H]2CC[C@]34C[C@]35CC[C@]3(C)C6C(O[C@@H]([C@@H]7OC(=O)OC7(C)C)C[C@H]6C)[C@H](O)[C@@]3(C)[C@@H]5CC[C@H]4C2(C)C)[C@@H]1O (some centres unmarked) | 1000 to 10000 nM | – | –
CC(=O)O[C@H]1CC[C@]23C[C@]24CC[C@]2(C)C5[C@H](C)C[C@H]([C@H](OC(C)=O)C(C)(C)O)O[C@@H]5[C@H](O)[C@@]2(C)[C@@H]4CC[C@H]3C1(C)C (some centres unmarked) | ≤ 1000 nM | – | –
CC(=O)O[C@@H]([C@H]1C[C@@H](C)C2C(O1)[C@H](O)[C@@]1(C)[C@@H]3CC[C@H]4C(C)(C)[C@@H](OC(CO)OCCO)CC[C@@]45C[C@@]35CC[C@]21C)C(C)(C)O (some centres unmarked) | ≤ 1000 nM | – | –
CC(=O)O[C@@H]([C@H]1C[C@@H](C)C2C(O1)[C@H](O)[C@@]1(C)[C@@H]3CC[C@H]4C(C)(C)[C@@H](OC(=O)CCC(=O)O)CC[C@@]45C[C@@]35CC[C@]21C)C(C)(C)O (some centres unmarked) | 1000 to 10000 nM | – | –
CC(=O)O[C@@H]([C@H]1C[C@@H](C)C2=C(O1)[C@H](O)[C@@]1(C)[C@@H]3CC[C@H]4C(C)(C)[C@@H](O[C@H]5CN(O)CCO5)CC[C@@]45C[C@@]35CC[C@]21C)C(C)(C)O | ≤ 1000 nM | – | –
CC(=O)O[C@@H]([C@H]1C[C@@H](C)C2C(O1)[C@H](O)[C@@]1(C)[C@@H]3CC[C@H]4C(C)(C)[C@@H](O[C@H]5CN(O)CCO5)CC[C@@]45C[C@@]35CC[C@]21C)C(C)(C)O (some centres unmarked) | ≤ 1000 nM | – | –
CC(=O)O[C@@H]([C@H]1C[C@@H](C)C2C(O1)[C@H](O)[C@@]1(C)[C@@H]3CC[C@H]4C(C)(C)[C@@H](OCC(=O)O)CC[C@@]45C[C@@]35CC[C@]21C)C(C)(C)O (some centres unmarked) | 1000 to 10000 nM | – | –
CC(=O)O[C@@H]([C@H]1C[C@@H](C)C2C(O1)[C@H](O)[C@@]1(C)[C@@H]3CC[C@H]4C(C)(C)[C@@H](O[C@H]5CN(C)CCO5)CC[C@@]45C[C@@]35CC[C@]21C)C(C)(C)O (some centres unmarked) | ≤ 1000 nM | – | –
CN[C@H]1CC[C@]23C[C@]24CC[C@]2(C)C5C(O[C@@H]([C@H](OC(C)=O)C(C)(C)O)C[C@H]5C)[C@H](O)[C@@]2(C)[C@@H]4CC[C@H]3C1(C)C (some centres unmarked) | 1000 to 10000 nM | – | –
CC(=O)O[C@@H]([C@H]1C[C@@H](C)C2C(O1)[C@H](O)[C@@]1(C)[C@@H]3CC[C@H]4C(C)(C)[C@@H](O[C@H]5CNCCO5)CC[C@@]45C[C@@]35CC[C@]21C)C(C)(C)O (some centres unmarked) | ≤ 1000 nM | – | –
CC(=O)O[C@@H]([C@H]1C[C@@H](C)C2C(O1)[C@H](O)[C@@]1(C)[C@@H]3CC[C@H]4C(C)(C)[C@H](NO)CC[C@@]45C[C@@]35CC[C@]21C)C(C)(C)O (some centres unmarked) | 1000 to 10000 nM | – | –
COCCN[C@H]1CC[C@]23C[C@]24CC[C@]2(C)C5C(O[C@@H]([C@H](OC(C)=O)C(C)(C)O)C[C@H]5C)[C@H](O)[C@@]2(C)[C@@H]4CC[C@H]3C1(C)C (some centres unmarked) | 1000 to 10000 nM | – | –
COCCN1CCOC(O[C@H]2CC[C@]34C[C@]35CC[C@]3(C)C6C(O[C@@H]([C@H](OC(C)=O)C(C)(C)O)C[C@H]6C)[C@H](O)[C@@]3(C)[C@@H]5CC[C@H]4C2(C)C)C1 (some centres unmarked) | ≤ 1000 nM | – | –
CC(=O)O[C@@H]([C@H]1C[C@@H](C)C2C(O1)[C@H](O)[C@@]1(C)[C@@H]3CC[C@H]4C(C)(C)[C@@H](OC5CN(C6CCCC6)CCO5)CC[C@@]45C[C@@]35CC[C@]21C)C(C)(C)O (some centres unmarked) | ≤ 1000 nM | – | –
CC(=O)O[C@@H]([C@H]1C[C@@H](C)C2C(O1)[C@H](O)[C@@]1(C)[C@@H]3CC[C@H]4C(C)(C)[C@@H](OC5CN(CCN6CCOCC6)CCO5)CC[C@@]45C[C@@]35CC[C@]21C)C(C)(C)O (some centres unmarked) | ≤ 1000 nM | – | –
